Laboratory results taken from patent publication US7638554B2, “Flavanoids as chemotherapeutic, chemopreventive, and antiangiogenic agents” (SRI International, priority 2002, dated 2009).
pIC50: −log10 of the molar value.

Columns and labels:
[1] = tested on: MDA-MB-231 cells; assay: Concurrent cytotoxicity assay (MTT), MDA-MB-231; type: cell-based, human; settings: 5 μM, 22 h
Procedure: The in vitro invasion through Matrigel was studied for two human breast cancer lines: MCF-10CA1a, a highly metastatic ER^+ line and MDA-MB-231, an ER^− line. […] At this concentration, SR13179 inhibited invasion of MDA-MB-231 by about 30% (and by 70% at 5 μM). To rule out a cytotoxic effect in the inhibition of invasion, a concurrent cytotoxicity assay was carried out and the number of viable cells was determined by MTT assay. There was less than 5% decrease in MDA-MB-231 cell viability at 5 μM concentration of SR13179 at 22 h. In the same experiment, a motility experiment was conducted, showing that cell migration was inhibited by about 20%.

[2] = tested on: colon cancer cell line KM12; assay: Growth inhibition, sulforhodamine-based protein determination, KM12; type: cell-based; settings: Homo sapiens, KM12, 144 h; continuous exposure six days
Procedure: (§1) The novel compound SR 13179 was assayed for its ability to inhibit growth in several cancer cell lines. The cell lines studied included breast cancer cell line MCF-7 (ER+); prostate cancer cell lines LNCaP, PC3, and DU145; lung cancer cell line A427; ovarian cancer cell lines IGROV1, OVCAR-3, OVCAR-4, OVCAR-5, OVCAR-8, and SK-OV-3; and colon cancer cell lines COLO 205, HCC-2998, HCT-116, HCT-15, HT29, KM12, AND SW-620.
(§2) The growth assays for the breast cancer cell lines were conducted according to the method of Example 16. For the other cell lines, each assay was conducted with continuous exposure to the test compound at four log concentrations for six days, using a sulforhodamine-based protein determination to measure growth inhibition.

[3] = tested on: human umbilical vein endothelial cells (HUVECs); assay: Growth inhibition of HUVECs, MTT assay; type: cell-based; settings: HUVEC, read-out: concentration to inhibit growth by 50%, HUVECs
Procedure: Angiogenesis depends upon the proliferation of vascular endothelial cells. To determine the potential antiangiogenic activity of SR 13179, the compound's ability to inhibit the proliferation of these cells was assayed. Apoptosis was then investigated as a possible mechanism for the antiproliferative activity.
Human vascular endothelial cells taken from umbilical veins (HUVECs) were obtained from Clonetics Corporation (San Diego, Calif.). Growth inhibition was measured quantitatively using the MTT assay as described by Mosmann et al., cited in the previous example.
The concentration to inhibit growth by 50% was 0.37 μM.

[4] = tested on: chick chorioallantoic membrane (CAM) blood vessels; assay: Chick chorioallantoic membrane (CAM) assay for antiangiogenic activity; type: in vivo
Procedure: The CAM assay, which is widely applied to evaluate in vivo antiangiogenic activity, was utilized with SR 13179.
The methods used were those of Folkman (Auerbach et al. (1974) Dev. Biol. 41:391-394), with some modifications. The test compound was dissolved in saline and methylcellulose, and the embryos dosed once daily for 12-14 days. Blood vessel density of each embryo was measured as the quantitative endpoint. The known antiangiogenic compound medroxyprogesterone acetate (MPA) was used as a positive control.

[5] = tested on: human TIMP-2 mRNA; assay: Northern blot analysis of TIMP-2 mRNA, MCF10CA1a cells; type: cell-based; settings: 0.5, 1, 3, or 5 μM
Procedure: Northern blotting. Ten μg of total RNA was electrophoresed in 1% agarose gel containing 6% formaldehyde, transferred to nylon membrane (Amersham Hybond N) by capillary blotting and fixed to the filter by exposure to UV. The blot was probed with a 600 bp ^32P-labeled cDNA sequence of human TIMP-2. Hybridizations were carried out at 42° C. in 50% formamide, 5×SSC, 5×Denhardt's solution, 0.1% SDS, and 0.3 mg/ml salmon sperm DNA. Filters were exposed to X-ray film (Kodak XAR-2) at −80° C. using an intensifying screen (Coronex Hi-Plus).
The effect of SR13179 on the extracellular levels of TIMP-2 as well as MMP-2 was also investigated. Treatment of MCF-10CA1a cells with SR13179 at 5 μM concentration caused 5- to 8-fold increase in the secreted level of TIMP-2 and a 2-fold decrease in the extracellular level of MMP-2. However, extracellular TIMP-2 protein was always associated with MMP-2 protein, even after the samples were boiled for 10 min and separated under the denaturing conditions of gel electrophoresis.

[6] = tested on: SKOV-3 human ovarian cancer xenografts; assay: SKOV-3 adriamycin- and cisplatin-resistant human ovarian cancer xenografts in nude mice; type: in vivo, female BALB/c mice
Procedure: The in vivo antitumor activity of SR 13179 against the highly aggressive adriamycin and cisplatin-resistant human ovarian cancer cell line SKOV-3 was evaluated in nude mice xenografts. The experiment was carried out as follows: Female BALB/c mice were inoculated subcutaneously with the human ovarian cancer SKOV-3 cells on both flanks. SR 13179 was administered to the mice on the same day as tumor cell inoculation, via two routes of administration, orally and intraperitoneally, in three doses of 10 mg/kg, 30 mg/kg and 100 mg/kg, once a day as a suspension in 0.5% hydroxypropylcellulose. Body weights and tumor volumes were measured twice a week. Results. […] The body weights of the treated mice were unaffected at all doses studied.

[7] = tested on: HUVEC cells; assay: Apoptosis in HUVEC cells, TUNEL assay; type: cell-based, human
Procedure: The antiproliferative mechanism was investigated by assaying for apoptosis using the method of Gavrieli et al. using a Promega (Madison, Wis.) apoptosis detection kit (Gavrieli et al. (1992) J Cell. Biol. 119:493-501). Briefly, HUVEC cells were treated with four log concentrations of SR 13179 (1 nM, 10 nM, 100 nM, and 1 μM) and fixed for terminal deoxyribonucleotide transferase-mediated dUTP nick end labeling (TUNEL) assay at 3 h and 6 h. The apoptotic cells were labeled with fluorescent dUTP at DNA strand breaks, and were counterstained with Hoechst 33258 to visualize nuclear morphology. Even at concentrations as low as 10 nM at 3 h, apoptosis was clearly evident as pyknotic nuclei. […] At six hours, there appeared to be massive apoptosis at higher concentrations of SR 13179, such that the cells were detached and lost during the washing steps. It thus appears that the antiproliferative effect of SR 13179 on vascular endothelial cells is mediated by apoptosis.

[8] = tested on: ovarian cancer cell line OVCAR-3; assay: Growth inhibition, sulforhodamine-based protein determination, OVCAR-3; type: cell-based; settings: Homo sapiens, OVCAR-3, 144 h; continuous exposure six days
Procedure: as §1, §2

[9] = tested on: prostate cancer cell line DU145; assay: Growth inhibition, sulforhodamine-based protein determination, DU145; type: cell-based; settings: Homo sapiens, DU-145, 144 h; continuous exposure six days
Procedure: as §1, §2

[10] = 11.1 μg/CAM, once daily for 12-14 days

## COc1cc(C2CC(O)c3ccc4ccccc4c3O2)cc(OC)c1OC (stereo not drawn) [SR 13179, 2-(3,4,5-trimethoxyphenyl)-3,4-dihydro-2H-benzo[h]chromen-4-ol]
[1]
  decrease in cell viability: less than 5%
[2]
  pIC50: 6.77
[3]
  pIC50: 6.43
[4]; [10]
  Blood vessel density score: 4.6 ± 2.2
  Percent inhibition relative to control: 57%
[4]; CAM assay
  in vivo antiangiogenic activity compared with MPA: equivalent to that of MPA
[5]
  TIMP-2 mRNA: dose-dependent induction
[6]; Day 10, oral and i.p., 10, 30 and 100 mg/kg once a day
  tumors smaller than untreated control: about 50%
[6]; all doses studied (10, 30, 100 mg/kg; oral and i.p.)
  body weights of the treated mice: unaffected
[6]; duration of the four-week study, oral and i.p.
  tumor growth compared to untreated control: significantly inhibited
[7]; 1 nM, 3 h
  Percent apoptosis: 10.3%
[7]; 1 nM, 6 h
  Percent apoptosis: 8.5%
[7]; 10 nM, 3 h
  Percent apoptosis: 10.3%
[7]; 10 nM, 6 h
  Percent apoptosis: cells detached
[7]; 100 nM, 3 h
  Percent apoptosis: 11.9%
[7]; 100 nM, 6 h
  Percent apoptosis: cells detached
[7]; 1 μM, 3 h
  Percent apoptosis: 16.7%
[7]; 1 μM, 6 h
  Percent apoptosis: cells detached
[7]; three hours after exposure, versus control
  increase in the percentage of detected apoptotic cells: two to three fold increase
[8]
  pIC50: 6.74
[9]
  pIC50: 6.20
